± gives the expanded uncertainty stated by the source.
Assays:
[1] = molar heat capacity at constant pressure; xn = mol fraction of the nth substance listed; conditions: Liquid, Small sample (50 mg) DSC
[2] = xn = mol fraction of the nth substance listed; conditions: Liquid, Vibrating tube method

C[n+]1ccn(CCO)c1.[Cl-] [1-(2-hydroxyethyl)-3-methyl-1H-imidazolium chloride] + O
molar heat capacity at constant pressure ([1]; 298.15 K, x1 = 0.0122): 75.34 ± 1.2 J/K/mol
molar heat capacity at constant pressure ([1]; 298.15 K, x1 = 0.0453): 79.99 ± 1.3 J/K/mol
molar heat capacity at constant pressure ([1]; 298.15 K, x1 = 0.0997): 88.41 ± 1.4 J/K/mol
molar heat capacity at constant pressure ([1]; 298.15 K, x1 = 0.2054): 107.22 ± 1.7 J/K/mol
molar heat capacity at constant pressure ([1]; 298.15 K, x1 = 0.3071): 124.59 ± 1.9 J/K/mol
molar heat capacity at constant pressure ([1]; 303.15 K, x1 = 0.0122): 75.7 ± 1.2 J/K/mol
molar heat capacity at constant pressure ([1]; 303.15 K, x1 = 0.0453): 80.58 ± 1.3 J/K/mol
molar heat capacity at constant pressure ([1]; 303.15 K, x1 = 0.0997): 89.25 ± 1.4 J/K/mol
molar heat capacity at constant pressure ([1]; 303.15 K, x1 = 0.2054): 108.22 ± 1.7 J/K/mol
molar heat capacity at constant pressure ([1]; 303.15 K, x1 = 0.3071): 125.97 ± 1.9 J/K/mol
molar heat capacity at constant pressure ([1]; 308.15 K, x1 = 0.0122): 76.07 ± 1.2 J/K/mol
molar heat capacity at constant pressure ([1]; 308.15 K, x1 = 0.0453): 81.14 ± 1.3 J/K/mol
molar heat capacity at constant pressure ([1]; 308.15 K, x1 = 0.0997): 90.1 ± 1.4 J/K/mol
molar heat capacity at constant pressure ([1]; 308.15 K, x1 = 0.2054): 109.32 ± 1.7 J/K/mol
molar heat capacity at constant pressure ([1]; 308.15 K, x1 = 0.3071): 127.4 ± 2 J/K/mol
molar heat capacity at constant pressure ([1]; 313.15 K, x1 = 0.0122): 76.41 ± 1.2 J/K/mol
molar heat capacity at constant pressure ([1]; 313.15 K, x1 = 0.0453): 81.68 ± 1.3 J/K/mol
molar heat capacity at constant pressure ([1]; 313.15 K, x1 = 0.0997): 90.91 ± 1.4 J/K/mol
molar heat capacity at constant pressure ([1]; 313.15 K, x1 = 0.2054): 110.27 ± 1.7 J/K/mol
molar heat capacity at constant pressure ([1]; 313.15 K, x1 = 0.3071): 128.97 ± 2 J/K/mol
molar heat capacity at constant pressure ([1]; 318.15 K, x1 = 0.0122): 76.86 ± 1.2 J/K/mol
molar heat capacity at constant pressure ([1]; 318.15 K, x1 = 0.0453): 82.39 ± 1.3 J/K/mol
molar heat capacity at constant pressure ([1]; 318.15 K, x1 = 0.0997): 91.91 ± 1.4 J/K/mol
molar heat capacity at constant pressure ([1]; 318.15 K, x1 = 0.2054): 111.66 ± 1.7 J/K/mol
molar heat capacity at constant pressure ([1]; 318.15 K, x1 = 0.3071): 130.65 ± 2 J/K/mol
molar heat capacity at constant pressure ([1]; 323.15 K, x1 = 0.0122): 77.24 ± 1.2 J/K/mol
molar heat capacity at constant pressure ([1]; 323.15 K, x1 = 0.0453): 83.01 ± 1.3 J/K/mol
molar heat capacity at constant pressure ([1]; 323.15 K, x1 = 0.0997): 92.79 ± 1.4 J/K/mol
molar heat capacity at constant pressure ([1]; 323.15 K, x1 = 0.2054): 112.94 ± 1.8 J/K/mol
molar heat capacity at constant pressure ([1]; 323.15 K, x1 = 0.3071): 132.15 ± 2.1 J/K/mol
molar heat capacity at constant pressure ([1]; 328.15 K, x1 = 0.0122): 77.61 ± 1.2 J/K/mol
molar heat capacity at constant pressure ([1]; 328.15 K, x1 = 0.0453): 83.57 ± 1.3 J/K/mol
molar heat capacity at constant pressure ([1]; 328.15 K, x1 = 0.0997): 93.66 ± 1.5 J/K/mol
molar heat capacity at constant pressure ([1]; 328.15 K, x1 = 0.2054): 114.19 ± 1.8 J/K/mol
molar heat capacity at constant pressure ([1]; 328.15 K, x1 = 0.3071): 133.71 ± 2.1 J/K/mol
molar heat capacity at constant pressure ([1]; 333.15 K, x1 = 0.0122): 77.97 ± 1.2 J/K/mol
molar heat capacity at constant pressure ([1]; 333.15 K, x1 = 0.0453): 84.16 ± 1.3 J/K/mol
molar heat capacity at constant pressure ([1]; 333.15 K, x1 = 0.0997): 94.54 ± 1.5 J/K/mol
molar heat capacity at constant pressure ([1]; 333.15 K, x1 = 0.2054): 115.52 ± 1.8 J/K/mol
molar heat capacity at constant pressure ([1]; 333.15 K, x1 = 0.3071): 135.39 ± 2.1 J/K/mol
molar heat capacity at constant pressure ([1]; 338.15 K, x1 = 0.0122): 78.39 ± 1.2 J/K/mol
molar heat capacity at constant pressure ([1]; 338.15 K, x1 = 0.0453): 84.85 ± 1.3 J/K/mol
molar heat capacity at constant pressure ([1]; 338.15 K, x1 = 0.0997): 95.51 ± 1.5 J/K/mol
molar heat capacity at constant pressure ([1]; 338.15 K, x1 = 0.2054): 117 ± 1.8 J/K/mol
molar heat capacity at constant pressure ([1]; 338.15 K, x1 = 0.3071): 137.33 ± 2.1 J/K/mol
molar heat capacity at constant pressure ([1]; 343.15 K, x1 = 0.0122): 78.9 ± 1.2 J/K/mol
molar heat capacity at constant pressure ([1]; 343.15 K, x1 = 0.0453): 85.64 ± 1.3 J/K/mol
molar heat capacity at constant pressure ([1]; 343.15 K, x1 = 0.0997): 96.65 ± 1.5 J/K/mol
molar heat capacity at constant pressure ([1]; 343.15 K, x1 = 0.2054): 118.67 ± 1.9 J/K/mol
molar heat capacity at constant pressure ([1]; 343.15 K, x1 = 0.3071): 139.45 ± 2.2 J/K/mol
molar heat capacity at constant pressure ([1]; 348.15 K, x1 = 0.0122): 79.24 ± 1.2 J/K/mol
molar heat capacity at constant pressure ([1]; 348.15 K, x1 = 0.0453): 86.2 ± 1.3 J/K/mol
molar heat capacity at constant pressure ([1]; 348.15 K, x1 = 0.0997): 97.49 ± 1.5 J/K/mol
molar heat capacity at constant pressure ([1]; 348.15 K, x1 = 0.2054): 120.06 ± 1.9 J/K/mol
molar heat capacity at constant pressure ([1]; 348.15 K, x1 = 0.3071): 141.39 ± 2.2 J/K/mol
molar heat capacity at constant pressure ([1]; 353.15 K, x1 = 0.0122): 79.67 ± 1.2 J/K/mol
molar heat capacity at constant pressure ([1]; 353.15 K, x1 = 0.0453): 86.89 ± 1.4 J/K/mol
molar heat capacity at constant pressure ([1]; 353.15 K, x1 = 0.0997): 98.46 ± 1.5 J/K/mol
molar heat capacity at constant pressure ([1]; 353.15 K, x1 = 0.2054): 121.68 ± 1.9 J/K/mol
molar heat capacity at constant pressure ([1]; 353.15 K, x1 = 0.3071): 143.57 ± 2.2 J/K/mol
mass density ([2]; 298.15 K, x1 = 0.0122): 1016.85 ± 0.27 kg/m3
mass density ([2]; 298.15 K, x1 = 0.0453): 1059.73 ± 0.22 kg/m3
mass density ([2]; 298.15 K, x1 = 0.0997): 1107.52 ± 0.16 kg/m3
mass density ([2]; 298.15 K, x1 = 0.2054): 1136.95 ± 0.15 kg/m3
mass density ([2]; 298.15 K, x1 = 0.3071): 1187.93 ± 0.15 kg/m3
mass density ([2]; 303.15 K, x1 = 0.0122): 1015.23 ± 0.27 kg/m3
mass density ([2]; 303.15 K, x1 = 0.0453): 1057.69 ± 0.22 kg/m3
mass density ([2]; 303.15 K, x1 = 0.0997): 1105.14 ± 0.13 kg/m3
mass density ([2]; 303.15 K, x1 = 0.2054): 1134.43 ± 0.13 kg/m3
mass density ([2]; 303.15 K, x1 = 0.3071): 1185.25 ± 0.15 kg/m3
mass density ([2]; 308.15 K, x1 = 0.0122): 1013.43 ± 0.26 kg/m3
mass density ([2]; 308.15 K, x1 = 0.0453): 1055.55 ± 0.21 kg/m3
mass density ([2]; 308.15 K, x1 = 0.0997): 1102.71 ± 0.13 kg/m3
mass density ([2]; 308.15 K, x1 = 0.2054): 1131.88 ± 0.13 kg/m3
mass density ([2]; 308.15 K, x1 = 0.3071): 1182.56 ± 0.15 kg/m3
mass density ([2]; 313.15 K, x1 = 0.0122): 1011.46 ± 0.26 kg/m3
mass density ([2]; 313.15 K, x1 = 0.0453): 1053.3 ± 0.2 kg/m3
mass density ([2]; 313.15 K, x1 = 0.0997): 1100.22 ± 0.13 kg/m3
mass density ([2]; 313.15 K, x1 = 0.2054): 1129.28 ± 0.13 kg/m3
mass density ([2]; 313.15 K, x1 = 0.3071): 1179.87 ± 0.15 kg/m3
mass density ([2]; 318.15 K, x1 = 0.0122): 1009.27 ± 0.26 kg/m3
mass density ([2]; 318.15 K, x1 = 0.0453): 1050.94 ± 0.21 kg/m3
mass density ([2]; 318.15 K, x1 = 0.0997): 1097.68 ± 0.12 kg/m3
mass density ([2]; 318.15 K, x1 = 0.2054): 1126.66 ± 0.12 kg/m3
mass density ([2]; 318.15 K, x1 = 0.3071): 1177.16 ± 0.15 kg/m3
mass density ([2]; 323.15 K, x1 = 0.0122): 1005.9 ± 0.27 kg/m3
mass density ([2]; 323.15 K, x1 = 0.0453): 1048.46 ± 0.22 kg/m3
mass density ([2]; 323.15 K, x1 = 0.0997): 1095.08 ± 0.18 kg/m3
mass density ([2]; 323.15 K, x1 = 0.2054): 1123.99 ± 0.13 kg/m3
mass density ([2]; 323.15 K, x1 = 0.3071): 1174.45 ± 0.15 kg/m3
